Species: Rattus norvegicus
Test: DrugMatrix - Regimen: Daily Repeat
Format: toxicity, organism-based, Sprague-Dawley
Set-up: regimen Daily Repeat, gender Male, age 6-8 weeks
Settings: in vivo, po, route oral GAVAGE, vehicle .5 % CMC; for ABSOLUTE BASOPHIL / ABSOLUTE EOSINOPHIL / ABSOLUTE LYMPHOCYTE / ABSOLUTE MONOCYTE / ABSOLUTE SEGMENTED NEUTROPHIL / BASOPHIL / EOSINOPHIL / ERYTHROCYTE COUNT / HEMATOCRIT / HEMOGLOBIN / LEUKOCYTE COUNT / LYMPHOCYTE / MEAN CORPUSCULAR HEMOGLOBIN / MEAN CORPUSCULAR HEMOGLOBIN CONCENTRATION / MEAN CORPUSCULAR VOLUME / MONOCYTE / NEUTROPHIL / NUCLEATED RED BLOOD CELLS / PLATELET COUNT: tissue Blood; for ALANINE AMINOTRANSFERASE / ALBUMIN / ALKALINE PHOSPHATASE / ASPARTATE AMINOTRANSFERASE / BLOOD UREA NITROGEN / CARBON DIOXIDE / CHLORIDE / CHOLESTEROL / CREATINE PHOSPHOKINASE / CREATININE / GLUCOSE / LACTATE DEHYDROGENASE / LIPASE / PHOSPHORUS / POTASSIUM / SODIUM / TOTAL BILIRUBIN / TOTAL PROTEIN / URIC ACID: tissue Plasma
[1] = 0.1 mg/kg, 120 h, dose level Low, time 5 day
[2] = […], 72 h, dose 1.1 mg/Kg, dose level High, time 3 day
[3] = […], 120 h, dose 1.1 mg/Kg, dose level High, time 5 day

CCCN1C[C@H](CSC)C[C@@H]2c3cccc4[nH]cc(c34)C[C@H]21 [PERGOLIDE]
ABSOLUTE BASOPHIL [1]: 0 CELLS/uL | ABSOLUTE EOSINOPHIL [1]: 175 CELLS/uL | ABSOLUTE LYMPHOCYTE [1]: 12836.67 CELLS/uL | ABSOLUTE MONOCYTE [1]: 191.67 CELLS/uL | ABSOLUTE SEGMENTED NEUTROPHIL [1]: 1130 CELLS/uL | BASOPHIL [1]: 0% | EOSINOPHIL [1]: 1% | ERYTHROCYTE COUNT [1]: 6.04 x10E6/uL | HEMATOCRIT [1]: 38.1% | HEMOGLOBIN [1]: 14.47 G/DL | LEUKOCYTE COUNT [1]: 14.33 x10E3/uL | LYMPHOCYTE [1]: 89.67% | MEAN CORPUSCULAR HEMOGLOBIN [1]: 24.1 pg | MEAN CORPUSCULAR HEMOGLOBIN CONCENTRATION [1]: 38.07 G/DL | MEAN CORPUSCULAR VOLUME [1]: 63.27 fL | MONOCYTE [1]: 1.33% | NEUTROPHIL [1]: 8% | NUCLEATED RED BLOOD CELLS [1]: 0 /100WBC | PLATELET COUNT [1]: 1209 x10E3/uL | ALANINE AMINOTRANSFERASE [1]: 50.33 u/L | ALBUMIN [1]: 4.13 G/DL | ALKALINE PHOSPHATASE [1]: 348 u/L | ASPARTATE AMINOTRANSFERASE [1]: 111.67 u/L | BLOOD UREA NITROGEN [1]: 19.33 mg/dL | CARBON DIOXIDE [1]: 24 mmol/L | CHLORIDE [1]: 107 MEQ/L | CHOLESTEROL [1]: 76.67 mg/dL | CREATINE PHOSPHOKINASE [1]: 1319 u/L | CREATININE [1]: 0.21 mg/dL | GLUCOSE [1]: 156 mg/dL | LACTATE DEHYDROGENASE [1]: 398.67 u/L | LIPASE [1]: 10 u/L | PHOSPHORUS [1]: 13.17 mg/dL | POTASSIUM [1]: 6.18 MEQ/L | SODIUM [1]: 145.93 MEQ/L | TOTAL BILIRUBIN [1]: 0.2 mg/dL | TOTAL PROTEIN [1]: 6.23 G/DL | URIC ACID [1]: 2.13 mg/dL | ABSOLUTE BASOPHIL [2]: 0 CELLS/uL | ABSOLUTE EOSINOPHIL [2]: 0 CELLS/uL | ABSOLUTE LYMPHOCYTE [2]: 11487 CELLS/uL | ABSOLUTE MONOCYTE [2]: 388 CELLS/uL | ABSOLUTE SEGMENTED NEUTROPHIL [2]: 1058.33 CELLS/uL | BASOPHIL [2]: 0% | EOSINOPHIL [2]: 0% | ERYTHROCYTE COUNT [2]: 5.69 x10E6/uL | HEMATOCRIT [2]: 36.2% | HEMOGLOBIN [2]: 13.43 G/DL | LEUKOCYTE COUNT [2]: 12.93 x10E3/uL | LYMPHOCYTE [2]: 88.67% | MEAN CORPUSCULAR HEMOGLOBIN [2]: 23.63 pg | MEAN CORPUSCULAR HEMOGLOBIN CONCENTRATION [2]: 37.13 G/DL | MEAN CORPUSCULAR VOLUME [2]: 63.6 fL | MONOCYTE [2]: 3% | NEUTROPHIL [2]: 8.33% | NUCLEATED RED BLOOD CELLS [2]: 0 /100WBC | PLATELET COUNT [2]: 1255.67 x10E3/uL | ALANINE AMINOTRANSFERASE [2]: 71 u/L | ALBUMIN [2]: 4.2 G/DL | ALKALINE PHOSPHATASE [2]: 385.33 u/L | ASPARTATE AMINOTRANSFERASE [2]: 116 u/L | BLOOD UREA NITROGEN [2]: 16 mg/dL | CARBON DIOXIDE [2]: 24.67 mmol/L | CHLORIDE [2]: 104.67 MEQ/L | CHOLESTEROL [2]: 68 mg/dL | CREATINE PHOSPHOKINASE [2]: 406 u/L | CREATININE [2]: 0.19 mg/dL | GLUCOSE [2]: 157 mg/dL | LACTATE DEHYDROGENASE [2]: 402.67 u/L | LIPASE [2]: 10 u/L | PHOSPHORUS [2]: 12.03 mg/dL | POTASSIUM [2]: 6.59 MEQ/L | SODIUM [2]: 145.53 MEQ/L | TOTAL BILIRUBIN [2]: 0.2 mg/dL | TOTAL PROTEIN [2]: 5.67 G/DL | URIC ACID [2]: 1.73 mg/dL | ABSOLUTE BASOPHIL [3]: 0 CELLS/uL | ABSOLUTE EOSINOPHIL [3]: 64.33 CELLS/uL | ABSOLUTE LYMPHOCYTE [3]: 14339 CELLS/uL | ABSOLUTE MONOCYTE [3]: 275 CELLS/uL | ABSOLUTE SEGMENTED NEUTROPHIL [3]: 888.33 CELLS/uL | BASOPHIL [3]: 0% | EOSINOPHIL [3]: 0.33% | ERYTHROCYTE COUNT [3]: 6.31 x10E6/uL | HEMATOCRIT [3]: 40.47% | HEMOGLOBIN [3]: 15.03 G/DL | LEUKOCYTE COUNT [3]: 15.57 x10E3/uL | LYMPHOCYTE [3]: 92.33% | MEAN CORPUSCULAR HEMOGLOBIN [3]: 23.77 pg | MEAN CORPUSCULAR HEMOGLOBIN CONCENTRATION [3]: 37.23 G/DL | MEAN CORPUSCULAR VOLUME [3]: 63.93 fL | MONOCYTE [3]: 1.67% | NEUTROPHIL [3]: 5.67% | NUCLEATED RED BLOOD CELLS [3]: 0 /100WBC | PLATELET COUNT [3]: 990.67 x10E3/uL | ALANINE AMINOTRANSFERASE [3]: 44.33 u/L | ALBUMIN [3]: 4.53 G/DL | ALKALINE PHOSPHATASE [3]: 385.67 u/L | ASPARTATE AMINOTRANSFERASE [3]: 82 u/L | BLOOD UREA NITROGEN [3]: 17.33 mg/dL | CARBON DIOXIDE [3]: 27.33 mmol/L | CHLORIDE [3]: 108.33 MEQ/L | CHOLESTEROL [3]: 76.67 mg/dL | CREATINE PHOSPHOKINASE [3]: 501.67 u/L | CREATININE [3]: 0.22 mg/dL | GLUCOSE [3]: 154 mg/dL | LACTATE DEHYDROGENASE [3]: 206.33 u/L | LIPASE [3]: 9.33 u/L | PHOSPHORUS [3]: 11.87 mg/dL | POTASSIUM [3]: 6.29 MEQ/L | SODIUM [3]: 147.9 MEQ/L | TOTAL BILIRUBIN [3]: 0.23 mg/dL | TOTAL PROTEIN [3]: 6.37 G/DL | URIC ACID [3]: 1.63 mg/dL

Reference: ChEMBL document CHEMBL3885881, “DrugMatrix”
